Data from patent US9918472B2, “Animal repellent” (SCENT SCIENCE INTERNATIONAL INC., priority 2010, dated 2018).

Key:
[1] = test system: wild-type mice (O-MACS-Cre); assay: Freezing test, quantification of fear reaction due to odor; type: in vivo, mouse; settings: for Freezing time (%): mice, n=8, 20 min observation, value ± standard error, t-test vs 1,3-dioxolane; for freezing-inducing effect at too high a concentration: Example 3, FIG. 4, dilution series up to 1.082 mmol
Procedure: About 5- to 7-month-old littermate wild-type mice (O-MACS-Cre) were placed in the mouse cages set in a draft (one mouse per cage) to perform habituation for 20 min. Similarly, 20 min habituation was performed the next day. On day 3, odor pods containing odorant molecules were placed in the cages in the draft, and the mice were placed in the cages with odor pods. The behaviors of the mice from day 1 to day 3 were video-recorded and the freezing time was analyzed by FreezeFrame system manufactured by NeuroScience Inc. The time during which the mouse was motionless for 2 seconds or longer was measured as a freezing time, and the time of freezing during the 20 min observation time was shown in %. The freezing time on day 2 was shown as control without odor in the data. As the mice used for experiment, male mice were used to avoid abnormality in the olfactory sense due to the sexual cycle. […] The odor pod refers to an apparatus containing filter paper impregnated with odorant and placed in a plastic petri dish with a lid having a hole. In this experiment, 2 MB (2-methylbutyric acid) 45 μL (270.6 μmol) or TMT 35 μL (270.6 μmol) was used as the odorant molecule.
Using various compounds, the freezing test shown in Experimental Example 1 was performed. […] For the experiment, 270.6 μmol of odorant molecules were used. The abbreviations and the formal names of the odorant molecules used are as follows.
The influence of the concentration of the odorant molecule on the effect of inducing a freezing behavior was analyzed. […] The freezing behavior was analyzed by a method similar to that in Example 1. The amount of the odorant molecules used of the both compounds was 270.6 nmol for 0.001, 2.706 μmol for 0.01, 27.06 μmol for 0.1, 270.6 μmol for 1, and 1.082 mmol for 4. The odorant molecule concentration in the gas in the test system was measured by gas chromatography, and the presence of a dependency relationship between the amount of the odorant molecules used for the test and the odorant molecule concentration in the gas in the test system was confirmed.
Using the following test compounds (13 kinds), the freezing test shown in Experimental Example 1 was performed. […] For the experiment, 270.6 μmol of odorant compounds were used.

mice = assay: Acclimation test (freezing time on daily odor exposure for 8 days); type: in vivo, mouse
Procedure: About 5- to 7-month-old littermate wild-type mice (O-MACS-Cre) were placed in the mouse cages set in a draft (one mouse per cage) to perform habituation for 20 min. Similarly, 20 min habituation was performed the next day. On day 3, odor pods containing odorant molecules were placed in the cages in the draft, and the mice were placed in the cages with odor pods. The behaviors of the mice from day 1 to day 3 were video-recorded and the freezing time was analyzed by FreezeFrame system manufactured by NeuroScience Inc. The time during which the mouse was motionless for 2 seconds or longer was measured as a freezing time, and the time of freezing during the 20 min observation time was shown in %. The freezing time on day 2 was shown as control without odor in the data. As the mice used for experiment, male mice were used to avoid abnormality in the olfactory sense due to the sexual cycle. Each experiment was performed with n=5. The odor pod refers to an apparatus containing filter paper impregnated with odorant and placed in a plastic petri dish with a lid having a hole. In this experiment, 2 MB (2-methylbutyric acid) 45 μL (270.6 μmol) or TMT 35 μL (270.6 μmol) was used as the odorant molecule.
Acclimation test: By the method of Experimental Example 1, mice (N=8) were forced to smell the test compound (2MT) every day for 8 days, and the freezing time (%) was measured over time. As a control, mice that were forced to learn to feel fear with the smell of anisole by a method including applying an electric shock immediately after smelling anisole (hereinafter to be also referred to as fear learning mice) were used. The aforementioned fear learning mice (N=8) were forced to smell anisole every day for 8 days, and the freezing time (%) was measured over time.

Compound | Freezing time (%) ([1]; Example 4, 270.6 μmol odorant) | further results
C1COCO1 [1,3-dioxolane, reference compound] |  | fear reaction of the comparison odorant ([1]; Example 4, odorant used as comparison for the t-test): does not induce a fear reaction
CC1(C)NCCS1 [2,2-dimethylthiazolidine] | 29.3 ± 5.2 % | 
CC1=NCC(C)S1 (centres unmarked) [2,5-dimethyl-2-thiazoline] | 55.9 ± 4.4 % | 
Brc1nccs1 [2-bromothiazole] | 4.8 ± 1.6 % | 
CCc1nccs1 [2-ethylthiazole] | 7.3 ± 1.6 % | 
CSC1=NCCS1 [2-methylthio-2-thiazoline] | 6.2 ± 3.0% | 
CC1=NCCS1 [2MT, 2-methyl-2-thiazoline] | 49.9 ± 3.0 % | freezing-inducing effect at too high a concentration [1]: decreased effect; freezing time profile on smelling the odor every day for 8 days (mice; Example 5, FIG. 5, mice N=8, not conditioned): did not decrease but rather increased
CC1CN=CS1 (centres unmarked) [5-methyl-2-thiazoline] | 39.6 ± 3.5 % | 
CC1CNCS1 (centres unmarked) [5-methylthiazolidine] | 4.2 ± 2.7% | 
CC1=NC(C)SC1C (centres unmarked) [TMT, 2,4,5-trimethyl-3-thiazoline, reference compound] |  | freezing-inducing effect at too high a concentration [1]: decreased effect; freezing time compared with 2 MB (putrid odor) ([1]; Experimental Example 1, FIG. 1, mice n=5, 270.6 μmol odorant): longer freezing time
COc1ccccc1 [anisole] |  | freezing time profile on smelling the odor every day (mice; Example 5, FIG. 5, fear learning mice, anisole every day for 8 days, N=8): decreased with time; freezing time with anisole the next day (mice; Example 5, fear learning mice (electric shock after smelling anisole), N=8): not less than 50%
CCN=C=S [ethyl isothiocyanate] | 14.0 ± 4.5 % | 
CC1(C)CS1 [isobutylene sulfide] | 4.3 ± 1.9 % | 
C1CSCN1 [thiazolidine] | 18.2 ± 5.3 % | 
C1CSCCN1 [thiomorpholine] | 15.9 ± 2.5 % | 
c1ccsc1 [thiophene] | 2.7 ± 1.6% | 
